Assays:
[1] = system: SDMA signal (PRMT5 inhibition) in HCT116 MTAP-deleted cells; assay: Symmetric di-methyl arginine image-based high content screen assay (SDMA assay), HCT116 MTAP-deleted; format: cell-based; conditions: SDMA assay; for EC50: Homo sapiens, HCT-116, 72 h, 3 days of treatment, cell line not given, taken as HCT116 MTAP-deleted, read-out: EC50 (SDMA assay); for EC50 selectivity (SDMA assay): taken as HCT116 WT versus MTAP-deleted
Outline: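 HCT116 MTAP-deleted cells treated with compound until Day 3, then formalin-fixed, permeabilized and immunostained for SDMA, with DAPI nuclear counterstain. Imaged by high-content microscopy; SDMA read-out is mean Alexa 488 intensity per DAPI-defined cell, reflecting PRMT5 inhibition.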

[2] = system: HCT116 MTAP-deleted cells; assay: Cell viability assay (CellTiter-Glo, 7 days), HCT116 MTAP-deleted; conditions: Homo sapiens, HCT-116, 168 h

| EC50 [1] [nM] | EC50 selectivity (SDMA assay) [1] | SMILES | CC50 [2] [nM] |
| --- | --- | --- | --- |
| < 1 | 134 | CC(=O)N(C)N(Cc1ccc(Cl)cc1Cl)C(=O)c1ccc2nc(N)c3cnn(C)c3c2c1 [Example 329, N′-acetyl-4-amino-N-(2,4-dichlorobenzyl)-N′,1-dimethyl-1H-pyrazolo[4,3-c]quinoline-8-carbohydrazide] | < 100 |
| < 1 | 225 | Cn1ncc2c(N)nc3ccc(C(=O)N(Cc4ccc(C(F)(F)F)cn4)NC(=O)OC4CCC4)cc3c21 [Example 330, cyclobutyl 2-(4-amino-1-methyl-1H-pyrazolo[4,3-c]quinoline-8-carbonyl)-2-((5-(trifluoromethyl)pyridin-2-yl)methyl)hydrazine-1-carboxylate] | < 100 |
| < 1 | 37 | Cn1ncc2c(N)nc3cc(F)c(C(=O)N(Cc4ccc(C(F)(F)F)cn4)NC(=O)OC4CCC4)cc3c21 [Example 331, cyclobutyl 2-(4-amino-7-fluoro-1-methyl-1H-pyrazolo[4,3-c]quinoline-8-carbonyl)-2-((5-(trifluoromethyl)pyridin-2-yl)methyl)hydrazine-1-carboxylate] | < 100 |
| < 1 | 308 | Cn1ncc2c(N)nc3ccc(C(=O)N(Cc4ccc(C(F)(F)F)cn4)NC(=O)C45CC(C4)C5)cc3c21 [Example 332, 4-amino-N′-(bicyclo[1.1.1]pentane-1-carbonyl)-1-methyl-N-((5-(trifluoromethyl)pyridin-2-yl)methyl)-1H-pyrazolo[4,3-c]quinoline-8-carbohydrazide] | < 100 |
| < 1 | 317 | Cn1ncc2c(N)nc3cc(F)c(C(=O)N(Cc4ccc(C(F)(F)F)cn4)NC(=O)C45CC(C4)C5)cc3c21 [Example 333, 4-amino-N′-(bicyclo[1.1.1]pentane-1-carbonyl)-7-fluoro-1-methyl-N-((5-(trifluoromethyl)pyridin-2-yl)methyl)-1H-pyrazolo[4,3-c]quinoline-8-carbohydrazide] | < 100 |
| 1 to 5 | 178 | CC(=O)N(C)N(Cc1ccc2oc(C)nc2c1)C(=O)c1ccc2nc(N)c3cnn(C)c3c2c1 [Example 334, N′-acetyl-4-amino-N′,1-dimethyl-N-((2-methylbenzo[d]oxazol-5-yl)methyl)-1H-pyrazolo[4,3-c]quinoline-8-carbohydrazide] | 100 to 1000 |
| 1 to 5 | 272 | CC(=O)N(C)N(Cc1ccc2nc(C)oc2c1)C(=O)c1ccc2nc(N)c3cnn(C)c3c2c1 [Example 335, N′-acetyl-4-amino-N′,1-dimethyl-N-((2-methylbenzo[d]oxazol-6-yl)methyl)-1H-pyrazolo[4,3-c]quinoline-8-carbohydrazide] | < 100 |
| 1 to 5 | 67 | CC(=O)N(C)N(Cc1ccc2nc(C(F)(F)F)sc2c1)C(=O)c1ccc2nc(N)c3cnn(C)c3c2c1 [Example 337, N′-acetyl-4-amino-N′,1-dimethyl-N-((2-(trifluoromethyl)benzo[d]thiazol-6-yl)methyl)-1H-pyrazolo[4,3-c]quinoline-8-carbohydrazide] | < 100 |
| < 1 | 373 | CN(C(=O)C12CC(C1)C2)N(Cc1ccc2ncsc2c1)C(=O)c1ccc2nc(N)c3cnn(C)c3c2c1 [Example 338, 4-amino-N-(benzo[d]thiazol-6-ylmethyl)-N′-(bicyclo[1.1.1]pentane-1-carbonyl)-N′,1-dimethyl-1H-pyrazolo[4,3-c]quinoline-8-carbohydrazideide] | < 100 |
| 1 to 5 | 280 | CN(C(=O)C1(C(F)F)CC1)N(Cc1ccc(C(F)(F)F)cn1)C(=O)c1ccc2nc(N)c3cnn(C)c3c2c1 [Example 339, 4-amino-N′-(1-(difluoromethyl)cyclopropane-1-carbonyl)-N′,1-dimethyl-N-((5-(trifluoromethyl)pyridin-2-yl)methyl)-1H-pyrazolo[4,3-c]quinoline-8-carbohydrazide] | 100 to 1000 |

Second part, the compound before the results:

| SMILES | EC50 [1] [nM] | EC50 selectivity (SDMA assay) [1] | CC50 [2] [nM] |
| --- | --- | --- | --- |
| C[C@@H]1CN(N(Cc2ccc(C(F)(F)F)cn2)C(=O)c2ccc3nc(N)c4cnn(C)c4c3c2)C[C@H](C)O1 [Example 310, 4-amino-N-((2S,6R)-2,6-dimethylmorpholino)-1-methyl-N-((5-(trifluoromethyl)pyridin-2-yl)methyl)-1H-pyrazolo[4,3-c]quinoline-8-carboxamide] | < 1 | 132 | < 100 |
| CN(C(=O)C1CC1)N(Cc1cc(F)c(-c2cnn(C(F)(F)F)c2)cc1F)C(=O)c1ccc2nc(N)c3cnn(C)c3c2c1 [Example 311, 4-amino-N′-(cyclopropanecarbonyl)-N-(2,5-difluoro-4-(1-(trifluoromethyl)-1H-pyrazol-4-yl)benzyl)-N′,1-dimethyl-1H-pyrazolo[4,3-c]quinoline-8-carbohydrazide] | 1 to 5 | 58 | < 100 |
| Cc1cc(CN(C(=O)c2ccc3nc(N)c4cnn(C)c4c3c2)N(C)C(=O)C2CC2)c(F)cc1-c1cnn(C(F)(F)F)c1 [Example 315, 4-amino-N′-(cyclopropanecarbonyl)-N-(2-fluoro-5-methyl-4-(1-(trifluoromethyl)-1H-pyrazol-4-yl)benzyl)-N′,1-dimethyl-1H-pyrazolo[4,3-c]quinoline-8-carbohydrazide] | < 1 | 160 | < 100 |
| Cc1cc(CN(C(=O)c2ccc3nc(N)c4cnn(C)c4c3c2)N(C)C(=O)C2CC2)c(F)cc1-c1cnn(C(F)F)c1 [Example 318, 4-amino-N′-(cyclopropanecarbonyl)-N-(4-(1-(difluoromethyl)-1H-pyrazol-4-yl)-2-fluoro-5-methylbenzyl)-N′,1-dimethyl-1H-pyrazolo[4,3-c]quinoline-8-carbohydrazide] | < 1 | 130 | < 100 |
| CC(=O)N(C)N(Cc1ccc2nc(C)sc2c1)C(=O)c1ccc2nc(N)c3cnn(C)c3c2c1 [Example 321, N′-acetyl-4-amino-N′,1-dimethyl-N-((2-methylbenzo[d]thiazol-6-yl)methyl)-1H-pyrazolo[4,3-c]quinoline-8-carbohydrazide] | < 1 | 85 | < 100 |
| Cn1ncc2c(N)nc3ccc(C(=O)N(Cc4ccc(C(F)(F)F)cc4F)n4cnc5ccccc54)cc3c21 [Example 322, 4-amino-N-(1H-benzo[d]imidazol-1-yl)-N-(2-fluoro-4-(trifluoromethyl)benzyl)-1-methyl-1H-pyrazolo[4,3-c]quinoline-8-carboxamide] | < 1 | 34 | < 100 |
| CN(C(=O)C1CC1)N(Cc1ccc2nc(C(F)(F)F)sc2c1)C(=O)c1ccc2nc(N)c3cnn(C)c3c2c1 [Example 323, 4-amino-N′-(cyclopropanecarbonyl)-N′,1-dimethyl-N-((2-(trifluoromethyl)benzo[d]thiazol-6-yl)methyl)-1H-pyrazolo[4,3-c]quinoline-8-carbohydrazide] | 1 to 5 | 44 | < 100 |
| CN(C(=O)C1CC1)N(Cc1ccc(C(F)F)cc1F)C(=O)c1ccc2nc(N)c3cnn(C)c3c2c1 [Example 324, 4-amino-N′-(cyclopropanecarbonyl)-N-(4-(difluoromethyl)-2-fluorobenzyl)-N′,1-dimethyl-1H-pyrazolo[4,3-c]quinoline-8-carbohydrazide] | < 1 | 111 | < 100 |
| [2H]C([2H])([2H])N(C(=O)C1CC1)N(Cc1ccc(C(F)(F)F)cn1)C(=O)c1ccc2nc(N)c3cnn(C)c3c2c1 [Example 325, 4-amino-N′-(cyclopropanecarbonyl)-1-methyl-N′-(methyl-d3)-N-((5-(trifluoromethyl)pyridin-2-yl)methyl)-1H-pyrazolo[4,3-c]quinoline-8-carbohydrazide] | < 1 | 103 | < 100 |
| [2H]C([2H])([2H])N(C(=O)C1CC1)N(Cc1ccc(C(F)(F)F)cn1)C(=O)c1ccc2nc(N)c3cnn(C([2H])([2H])[2H])c3c2c1 [Example 326, 4-amino-N′-(cyclopropanecarbonyl)-N′,1-bis(methyl-d3)-N-((5-(trifluoromethyl)pyridin-2-yl)methyl)-1H-pyrazolo[4,3-c]quinoline-8-carbohydrazide] | < 1 | 114 | < 100 |
| CC(=O)N(C)N(Cc1ccc2scnc2c1)C(=O)c1ccc2nc(N)c3cnn(C)c3c2c1 [Example 327, N′-acetyl-4-amino-N-(benzo[d]thiazol-5-ylmethyl)-N′,1-dimethyl-1H-pyrazolo[4,3-c]quinoline-8-carbohydrazide] | 1 to 5 | 549 | < 100 |
| CC(=O)N(C)N(Cc1ccc2scnc2c1)C(=O)c1cc2c(cc1F)nc(N)c1cnn(C)c12 [Example 328, N′-acetyl-4-amino-N-(benzo[d]thiazol-5-ylmethyl)-7-fluoro-N′,1-dimethyl-1H-pyrazolo[4,3-c]quinoline-8-carbohydrazide] | 1 to 5 | 143 | < 100 |
| Cn1ncc2c(N)nc3ccc(C(=O)N(Cc4ccc(C(F)(F)F)cn4)N4CCC5(CC5)OC4=O)cc3c21 [Example 336, 4-amino-1-methyl-N-(5-oxo-4-oxa-6-azaspiro[2.5]octan-6-yl)-N-((5-(trifluoromethyl)pyridin-2-yl)methyl)-1H-pyrazolo[4,3-c]quinoline-8-carboxamide] | 1 to 5 | 94 | < 100 |
